{
  "source": "patent US7662547B2",
  "about": "“Compositions and methods for detecting and treating HIV infections” (priority 2006, dated 2010)",
  "key": {"LFA-1 activation": {"tested_on": "LFA-1 activation", "test": "LFA-1 activation staining (ICAM-1/Fc chimera, flow cytometry) of T cells activated by anti-CD3/CD28 bead", "assay_type": "cell-based, human", "method": "Half million CD4 T cells in 500 μl culture medium were treated with 5 μl of human IgG (Jackson Immuno Research, West Grove, Pa.) to block non-specific staining. Cells were stained with 10 μl (50 μg/ml) of human ICAM-1 Fc chimera (R&D System, Minneapolis, Minn.) for 20 min at 4° C. Cells were washed and blocked by 5 μl of mouse IgG (Jackson ImmunoResearch, West Grove, Pa.), followed by the addition of 10 μl of FITC labeled mouse anti-human Fc (Jackson ImmunoResearch, West Grove, Pa.), and incubated for 20 min at 4° C. Cells were finally washed and resuspended in 500 μl of 1% paraformaldehyde for flow cytometry.\nThus, the effect of Jas on T cell activity was determined. FIG. 3A illustrates inhibition of HIV-1 latent infection by Jas. Effects of Jas on LFA-1 activation also were tested. Jas treated or untreated resting T cells were activated by anti-CD3/CD28 bead and stained with human ICAM-1/Fc chimera and analyzed by flow cytometer. The effects of Jas on IL-2 secretion also were measured. […] Cells were treated with Jas for 2 hours, washed, infected with HIV-1 for 5 days, then activated by anti-CD3/CD28 bead. […] Following infection, cellular DNA was PCR amplified for viral late DNA and β-actin pseudogene. Cells were pre-activated with PHA plus IL-2, then treated and infected as in FIG. 3A. […] CEM-SS cell were treated and infected as in FIG. 3A. […]"}, "IL-2 secretion": {"tested_on": "IL-2 secretion", "test": "IL-2 ELISA of cell culture supernatant after T cell activation", "assay_type": "cell-based, human", "method": "IL-2 release into cell culture supernatant was detected by a human IL-2 ELISA development kit (PeproTech, Rocky Hill, N.J.) according to the manufacture's instruction. Briefly, each well of a plate was coated with 100 μl of capture antibody (1 μg/ml) and incubated overnight at room temperature, then washed and blocked with 300 μl of blocking solution for one hour at room temperature. Samples in plates were incubated for 1 hour at 37° C., then washed and incubated with 100 μl of detection antibody (0.5 μg/ml) for 1 hour at 37° C. Plates were washed and incubated with 100 μl of the avidin-peroxidase conjugate (1:2000 dilution) for 30 minutes at room temperature followed by washing and incubation with 100 μl of Tetramethylbenzidine (TMB) substrate buffer. Plates were kinetically read using ELx808 automatic microplate reader (Bio-Tek Instruments, Inc. Winooski, Vt.) at 630 nm."}, "F-actin": {"tested_on": "F-actin", "test": "Competitive binding of phalloidin to F-actin", "conditions": "120 nM"}},
  "data": [
    {"smiles": "C/C1=C\\[C@H](C)C[C@H](C)OC(=O)C[C@H](c2ccc(O)cc2)NC(=O)[C@@H](Cc2c(Br)[nH]c3ccccc23)N(C)C(=O)[C@H](C)NC(=O)[C@@H](C)C1", "note": "[Jas, Jasplakinolide]", "values": [
      {"measurement": "inhibition of LFA-1 activation", "setting": "LFA-1 activation; 120 nM and below", "result": "no detectable inhibition"},
      {"measurement": "inhibition of LFA-1 activation", "setting": "LFA-1 activation; 3 1μM Jas", "result": "greatly inhibited"},
      {"measurement": "effect on IL-2 secretion", "setting": "IL-2 secretion; 120 nM and below", "result": "no significant effect"},
      {"measurement": "effect on IL-2 expression following T cell activation", "setting": "IL-2 secretion; 600 nM and above", "result": "inhibited IL-2 expression"},
      {"measurement": "inhibition of subsequent competitive binding of phalloidin to F-actin", "setting": "F-actin", "result": "significantly inhibited"}
    ]}
  ]
}
